Results reported in patent publication US12421229B2, “Hydropyrido[1,2-α]pyrazine compounds for the treatment of autoimmune disease” (Hoffmann-La Roche Inc., priority 2019, dated 2025).

Assays:
[1] = biological target: T1, CYP3A4 (Homo sapiens, UniProt P08684); assay: CYP inhibition assay in human liver microsome, CYP3A4; assay type: in vitro ADME; details: percentage inhibition, substrate Midazolam 5 μM
T1 construct: tissue BD-Gentest 452117; host or cells: human liver microsomes
Method: (§1) This is a high throughput screening assay used for assessment of reversible inhibition of CYP2C9, CYP2D6, and CYP3A4 activity of test compounds in human liver microsome (HLM) in early discovery stage.
(§2) 10 mM DMSO stock solutions of test compounds were diluted in DMSO to generate 2 mM intermediate stock solution. 250 nL of intermediate stock solution were transferred in duplicate into 3 separate 384 well microtitre plates (assay-ready plates). A mixture of HLM and each substrate was made up. 45 μL of HLM substrate mix was then transferred to each well of an assay ready plate and mixed. The negative (solvent) and positive controls (standard inhibitor for each CYP) were included in each assay ready plate. The assay ready plate was warmed to 37° C. in an incubator over 10 minutes. 5 μL pre-warmed NADPH regenerating system was added to each incubation well to start the reaction. Final incubation volume was 50 μL. The assay plate then was placed back in the 37° C. incubator. After incubation (10 minutes for CYP2D6) for 5 minutes, incubates were quenched by addition of 50 μL 100% acetonitrile containing internal standards (400 ng/mL 13C6-4′-OH-Diclofenac, 20 ng/mL D3-Dextrorphan and 20 ng/mL D4-1′OH-Midazolam). The supernatants were collected for RapidFire/MS/MS analysis.
(§3) RapidFire online solid phase extraction/sample injection system (Agilent) coupled with API4000 triple quadrupole mass spectrometer (AB Sciex) were used for sample analysis. The mobile phase composed of acetonitrile and water supplemented with 0.1% formic acid. A C4 solid phase extraction cartridge is used for sample separation. MS detection is achieved in positive ion MRM mode.
(§4) Peak areas for substrate, metabolite and internal standard are determined using the RapidFire integrator software (version 3.6.12009.12296). Peak area ratios (PAR) of metabolite and internal standard (stable-labelled metabolite) are then calculated. The measurement window for each experiment is then defined:
(§5) PAR (0% activity)=average PAR for all incubations containing concentrated inhibitor;
(§6) Par (100% activity)=average PAR for all incubations containing no inhibitor (DMSO controls);
(§7) % Activity (test inhibitor)=[PAR(test inhibitor)−PAR(0% activity)/PAR(100% activity)−PAR(0% activity)];
(§8) % Inhibition (test inhibitor)=100−% Activity (test inhibitor).

[2] = biological target: T2, CYP2D6 (Homo sapiens, UniProt P10635); assay: CYP inhibition assay in human liver microsome, CYP2D6; assay type: in vitro ADME; details: percentage inhibition, substrate Dextromethorphan 5 μM
T2 construct: tissue BD-Gentest 452117; host or cells: human liver microsomes
Method: as §1, §2, §3, §4, §5, §6, §7, §8

[3] = biological target: T3, human TLR9 (Homo sapiens, UniProt Q9NR96); assay: HEK293-Blue-hTLR-9 cells assay; assay type: cell-based; details: HEK293-Blue-hTLR9 cells, ODN2006 stimulation, 20 hrs, SEAP reporter; read-out: HEK/hTLR9 IC50
T3 construct: host or cells: HEK293 (HEK-Blue hTLR9)
T3 sequence (Q9NR96 26-1032): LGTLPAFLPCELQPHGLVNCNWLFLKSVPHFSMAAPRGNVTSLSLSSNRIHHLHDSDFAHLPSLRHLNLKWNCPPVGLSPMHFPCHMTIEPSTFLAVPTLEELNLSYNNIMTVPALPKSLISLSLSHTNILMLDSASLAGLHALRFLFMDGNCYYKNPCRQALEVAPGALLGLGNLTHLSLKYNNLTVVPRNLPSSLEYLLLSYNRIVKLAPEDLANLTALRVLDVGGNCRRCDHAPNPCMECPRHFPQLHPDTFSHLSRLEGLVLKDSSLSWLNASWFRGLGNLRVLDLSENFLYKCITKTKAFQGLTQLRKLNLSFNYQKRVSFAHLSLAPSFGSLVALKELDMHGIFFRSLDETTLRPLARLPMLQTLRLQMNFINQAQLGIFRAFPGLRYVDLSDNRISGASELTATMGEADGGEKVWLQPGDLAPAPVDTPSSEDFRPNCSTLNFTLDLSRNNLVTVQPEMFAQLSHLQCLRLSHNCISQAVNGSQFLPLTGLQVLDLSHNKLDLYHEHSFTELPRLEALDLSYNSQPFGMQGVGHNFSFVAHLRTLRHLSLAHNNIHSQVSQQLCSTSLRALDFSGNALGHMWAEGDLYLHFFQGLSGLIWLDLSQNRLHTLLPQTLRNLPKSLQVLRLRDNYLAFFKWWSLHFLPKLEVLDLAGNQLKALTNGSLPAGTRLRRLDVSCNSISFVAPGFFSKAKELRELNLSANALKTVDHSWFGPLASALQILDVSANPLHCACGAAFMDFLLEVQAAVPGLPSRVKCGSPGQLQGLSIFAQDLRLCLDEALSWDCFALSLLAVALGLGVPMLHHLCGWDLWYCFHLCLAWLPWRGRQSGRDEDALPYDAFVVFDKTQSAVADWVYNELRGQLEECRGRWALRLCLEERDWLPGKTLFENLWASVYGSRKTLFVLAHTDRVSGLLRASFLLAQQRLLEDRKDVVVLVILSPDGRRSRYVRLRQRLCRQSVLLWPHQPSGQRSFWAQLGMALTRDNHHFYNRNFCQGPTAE
Excerpt: A stable HEK293-Blue-hTLR-9 cell line was purchased from InvivoGen (Cat. #: hkb-htlr9, San Diego, California, USA). These cells were originally designed for studying the stimulation of human TLR9 by monitoring the activation of NF-κB. A SEAP (secreted embryonic alkaline phosphatase) reporter gene was placed under the control of the IFN-β minimal promoter fused to five NF-κB and AP-1-binding sites. The SEAP was induced by activating NF-κB and AP-1 via stimulating HEK-Blue hTLR9 cells with TLR9 ligands. Therefore the reporter expression was declined by TLR9 antagonist under the stimulation of a ligand, such as ODN2006 (Cat. #: tlrl-2006-1, Invivogen, San Diego, California, USA), for incubation of 20 hrs. The cell culture supernatant SEAP reporter activity was determined using QUANTI-Blue™ kit (Cat. #: rep-qb1, Invivogen, San Diego, California, USA) at a wavelength of 640 nm, a detection medium that turns purple or blue in the presence of alkaline phosphatase.
HEK293-Blue-hTLR9 cells were incubated at a density of 250,000˜450,000 cells/mL in a volume of 170 μL in a 96-well plate in Dulbecco's Modified Eagle's medium (DMEM) containing 4.5 g/L glucose, 50 U/mL penicillin, […], 2 mM L-glutamine, 10% (v/v) heat-inactivated fetal bovine serum with addition of 20 μL test compound in a serial dilution in the presence of final DMSO at 1% and 10 μL of 20 uM ODN2006 in above DMEM, perform incubation under 37° C. in a CO2 incubator for 20 hrs. Then 20 μL of the supernatant from each well was incubated with 180 μL Quanti-blue substrate solution at 37° C. for 2 h and the absorbance was read at 620˜655 nm using a spectrophotometer. The signaling pathway that TLR9 activation leads to downstream NF-κB activation has been widely accepted, and therefore similar reporter assay was modified for evaluating TLR9 antagonist.

T1 sequence (P08684 whole entry): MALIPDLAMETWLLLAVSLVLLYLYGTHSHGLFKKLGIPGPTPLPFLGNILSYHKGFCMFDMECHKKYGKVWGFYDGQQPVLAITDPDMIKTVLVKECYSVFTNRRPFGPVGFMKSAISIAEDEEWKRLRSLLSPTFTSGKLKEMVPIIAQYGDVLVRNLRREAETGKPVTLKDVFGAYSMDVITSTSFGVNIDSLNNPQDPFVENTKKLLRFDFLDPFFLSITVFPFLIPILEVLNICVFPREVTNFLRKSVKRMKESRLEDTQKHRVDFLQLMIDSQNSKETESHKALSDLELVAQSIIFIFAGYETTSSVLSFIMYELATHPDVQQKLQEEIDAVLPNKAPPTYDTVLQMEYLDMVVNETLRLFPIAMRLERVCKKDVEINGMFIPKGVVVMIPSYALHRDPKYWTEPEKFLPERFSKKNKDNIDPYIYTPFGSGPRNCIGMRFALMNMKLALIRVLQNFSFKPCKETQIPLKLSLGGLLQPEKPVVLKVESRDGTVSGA
T2 sequence (P10635 whole entry): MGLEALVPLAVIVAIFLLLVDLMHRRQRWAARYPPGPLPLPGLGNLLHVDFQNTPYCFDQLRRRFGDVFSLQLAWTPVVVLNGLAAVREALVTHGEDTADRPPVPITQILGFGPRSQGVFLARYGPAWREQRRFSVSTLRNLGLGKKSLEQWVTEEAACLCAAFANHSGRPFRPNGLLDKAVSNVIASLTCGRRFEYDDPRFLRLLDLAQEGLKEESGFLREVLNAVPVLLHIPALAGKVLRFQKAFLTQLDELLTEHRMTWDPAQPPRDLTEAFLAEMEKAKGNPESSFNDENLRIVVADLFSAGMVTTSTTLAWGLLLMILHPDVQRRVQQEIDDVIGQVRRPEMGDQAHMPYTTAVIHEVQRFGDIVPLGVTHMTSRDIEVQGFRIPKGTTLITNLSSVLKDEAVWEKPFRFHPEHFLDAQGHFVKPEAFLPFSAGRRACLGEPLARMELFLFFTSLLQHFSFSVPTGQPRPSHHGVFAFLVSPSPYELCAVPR

Structure (SMILES) | CYP (%) 3A4 [1] | CYP (%) 2D6 [2] | IC50 [3]
C[C@@H]1CN(c2ccc(C#N)c3ncccc23)C[C@@H]2C[C@H](c3ccc(N4CCNCC4)nc3)CCN21 (stereo in doubt) [Example 2, 5-[(4R,8R)-4-methyl-8-(6-piperazin-1-yl-3-pyridyl)-1,3,4,6,7,8,9,9a-octahydropyrido[1,2-a]pyrazin-2-yl]quinoline-8-carbonitrile] | 38% | −5.5% | 81 nM
CO[C@H]1CN(c2ccc([C@@H]3CCN4[C@@H](C3)CN(c3ccc(C#N)c5ncccc35)C[C@H]4C)cn2)C[C@@H]1N [Example 6, 5-[(4R,8R,9aS)-8-[6-[(3S,4S)-3-amino-4-methoxy-pyrrolidin-1-yl]-3-pyridyl]-4-methyl-1,3,4,6,7,8,9,9a-octahydropyrido[1,2-a]pyrazin-2-yl]quinoline-8-carbonitrile] | 11% | −12.5% | 87 nM
C[C@@H]1CN(c2ccc(C#N)c3ncccc23)C[C@@H]2C[C@@H](Oc3ccc(N4CCNCC4)cn3)CCN21 [Example 11, 5-[(4R,8S,9aS)-4-methyl-8-[(5-piperazin-1-yl-2-pyridyl)oxy]-1,3,4,6,7,8,9,9a-octahydropyrido[1,2-a]pyrazin-2-yl]quinoline-8-carbonitrile] | 12% | −24.5% | 90 nM
CO[C@@H]1CN(c2ccc([C@@H]3CCN4[C@@H](C3)CN(c3ccc(C#N)c5ncccc35)C[C@H]4C)cn2)C[C@H]1N [Example 14, 5-[(4R,8R,9aS)-8-[6-[(3R,4R)-3-amino-4-methoxy-pyrrolidin-1-yl]-3-pyridyl]-4-methyl-1,3,4,6,7,8,9,9a-octahydropyrido[1,2-a]pyrazin-2-yl]quinoline-8-carbonitrile] | 19.5% | −0.5% | 78 nM
C[C@@H]1CN(c2ccc(C#N)c3ncccc23)C[C@@H]2C[C@H](c3ccc(N4C[C@@H](N)[C@@H](F)C4)nc3)CCN21 [Example 19, 5-[(4R,8R,9aS)-8-[6-[(3R,4S)-3-amino-4-fluoro-pyrrolidin-1-yl]-3-pyridyl]-4-methyl-1,3,4,6,7,8,9,9a-octahydropyrido[1,2-a]pyrazin-2-yl]quinoline-8-carbonitrile] | 30% | −6% | 82 nM
C[C@@H]1CN(c2ccc(C#N)c3ncccc23)C[C@@H]2C[C@H](Nc3ccc(C[C@@H]4CNCCO4)cc3)CCN21 [Example 21, 5-[(4R,8R,9aS)-4-methyl-8-[4-[[(2R)-morpholin-2-yl]methyl]anilino]-1,3,4,6,7,8,9,9a-octahydropyrido[1,2-a]pyrazin-2-yl]quinoline-8-carbonitrile] | 15.5% | 9% | 86 nM
C[C@@H]1CN(c2ccc(C#N)c3ncccc23)C[C@@H]2C[C@H](c3ccc([C@@H]4CNCCO4)cc3)CCN21 [Example 27, 5-[(4R,8R,9aS)-4-methyl-8-[4-[(2R)-morpholin-2-yl]phenyl]-1,3,4,6,7,8,9,9a-octahydropyrido[1,2-a]pyrazin-2-yl]quinoline-8-carbonitrile] | 37% | 8% | 72 nM

Now those with a lower IC50 [3], led by results:

CYP (%) 3A4 [1] | CYP (%) 2D6 [2] | IC50 [3] | Structure (SMILES)
9.5% | −2% | < 32 nM | C[C@@H]1CN(c2ccc(C#N)c3ncccc23)C[C@@H]2C[C@H](N3CC(c4ccc(N5CCNCC5)cc4)C3)CCN21 [Example 9, 5-[(4R,8R,9aS)-4-methyl-8-[3-(4-piperazin-1-ylphenyl)azetidin-1-yl]-1,3,4,6,7,8,9,9a-octahydropyrido[1,2-a]pyrazin-2-yl]quinoline-8-carbonitrile]
37.5% | 0% | 66 nM | CO[C@H]1CN(c2ccc([C@@H]3CCN4[C@@H](C3)CN(c3ccc(C#N)c5ncccc35)C[C@H]4C)cn2)C[C@H]1N [Example 12, 5-[(4R,8R,9aS)-8-[6-[(3R,4S)-3-amino-4-methoxy-pyrrolidin-1-yl]-3-pyridyl]-4-methyl-1,3,4,6,7,8,9,9a-octahydropyrido[1,2-a]pyrazin-2-yl]quinoline-8-carbonitrile]
3.5% | 2.5% | 57 nM | [2H]c1ccc2c(N3C[C@@H]4C[C@H](Nc5ccc(C[C@H]6CNCCO6)cc5)CCN4[C@H](C)C3)ccc(C#N)c2n1 [Example 34, 5-[(4R,8R,9aS)-4-methyl-8-[4-[[(2S)-morpholin-2-yl]methyl]anilino]-1,3,4,6,7,8,9,9a-octahydropyrido[1,2-a]pyrazin-2-yl]-2-deuterio-quinoline-8-carbonitrile]
 |  | 32 nM | [2H]c1ccc2c(N3C[C@@H]4C[C@@H](N5CC(c6ccc(N7C[C@@H](N)[C@H](OC)C7)cc6)C5)CCN4[C@H](C)C3)ccc(C#N)c2n1 [Example 36]
32.5% | 14.5% | 34 nM | [2H]c1ccc2c(N3C[C@@H]4C[C@H](N5CCN(c6ccncc6)CC5)CCN4[C@H](C)C3)ccc(C#N)c2n1 [Example 37, 5-[(4R,8R,9aS)-4-methyl-8-[4-(4-pyridyl)piperazin-1-yl]-1,3,4,6,7,8,9,9a-octahydropyrido[1,2-a]pyrazin-2-yl]-2-deuterio-quinoline-8-carbonitrile]
